Assay results as given in patent US20110318393A1, “Substituted Pyrazole Compounds” (MIIKANA THERAPEUTICS, INC., priority 2008, published 2011).

What was measured:
Type in all cases: biochemical
recombinant Aurora A = target: T1, recombinant Aurora A (Homo sapiens, UniProt O14965); test: Aurora A (Aurora 2) inhibition assay, Z'-Lyte kinase assay; details: ATP 10 μM, 1 h; less than or equal to 100 nM
T1 construct: purchased Upstate, Lake Placid, N.Y
T1 sequence (O14965 1-403): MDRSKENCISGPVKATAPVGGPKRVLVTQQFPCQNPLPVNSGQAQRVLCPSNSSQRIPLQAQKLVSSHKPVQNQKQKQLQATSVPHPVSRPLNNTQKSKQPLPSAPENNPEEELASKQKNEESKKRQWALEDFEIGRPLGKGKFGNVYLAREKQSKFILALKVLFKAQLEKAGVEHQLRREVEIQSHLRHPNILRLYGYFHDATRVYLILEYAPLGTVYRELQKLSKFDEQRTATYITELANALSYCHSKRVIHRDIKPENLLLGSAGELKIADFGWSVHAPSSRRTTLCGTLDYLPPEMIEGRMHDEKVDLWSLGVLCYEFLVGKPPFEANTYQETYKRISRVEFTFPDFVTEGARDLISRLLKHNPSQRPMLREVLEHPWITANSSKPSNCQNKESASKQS
Protocol: Compounds were tested for their potency against recombinant Aurora A (Upstate, Lake Placid, N.Y.) using the PanVera Z′-Lyte kinase assay kit-Ser/Thr 1 peptide (Invitrogen, Carlsbad, Calif.). Assays were carried out in kinase assay buffer (50 mM HEPES, pH 7.5, 10 mM MgCl2, 5 mM EGTA, 0.05% Brij-35, 2 mM DTT). Test compounds were initially dissolved in DMSO at 100× the highest tested concentration, then serially diluted to 4× test concentrations in kinase assay buffer. Next, Aurora A (final concentration 200-500 ng/mL), Z′-Lyte Ser/Thr 1 peptide (final concentration 2 μM) and ATP (final concentration 10 μM) were added according to the manufacturer's instructions. Assays were carried out in half-area 96-well white polystyrene assay plates (Corning, Corning, N.Y.) in a final volume of 20 μl. The reaction was allowed to proceed for 1 h at room temperature in the dark, at which point the development reagent and stop reagent were added according to the manufacturer's instructions. Coumarin (Ex. 400 nm, Em. 465 nm) and fluorescein (Ex. 400 nm, Em. 565 nm) fluorescence values were measured on a SpectraFluor Plus plate reader (Tecan, Durham, N.C.). The emission ratio (coumarin/fluorescein) was determined and used to calculate the percent phosphorylation for each well. Wells containing substrate but no kinase and wells containing a phosphopeptide control were used to set 0% and 100% phosphorylation values, respectively. Typically 20-40% of the substrate was phosphorylated in wells without inhibitor. Dose-response curves of relative Aurora A activity vs. inhibitor concentration were plotted with Grafit (Erithacus Software, Horley, Surrey, UK).

Aurora B kinase = target: T2, Aurora B kinase (Homo sapiens, UniProt Q96GD4); test: Aurora B (Aurora 1) inhibition assay, Z'-Lyte kinase assay; details: ATP 50 μM, 16 h; less than or equal to 100 nM
T2 construct: purchased BPS Biosciences, San Diego, Calif

[1] = target: T3, N-terminal His-tagged human Src (Homo sapiens, UniProt P12931); test: Src kinase inhibition assay (33P-ATP filter assay); details: 40 minutes, room temperature; less than or equal to 100 nM
T3 construct: His (N); purchased Upstate USA Inc, Charlottesville, Va
Protocol: Compounds were assayed for Src kinase inhibitory activity using N-terminal His-tagged human Src (Upstate USA Inc, 706 Forest Street, Charlottesville, Va.). Serial dilutions of compound were assayed in a final reaction volume of 25 μL by incubating a solution of the above Src kinase (5-10 mU), 8 mM MOPS (3-(N-morpholino)propanesulfonic acid) pH 7.0, 0.2 mM EDTA (ethylenediamine tetracetic acid), 250 μM amino acid sequence KVEKIGEGTYGVVYK (Upstate USA Inc, 706 Forest Street, Charlottesville, Va.), and 10 mM magnesium acetate and [γ-^33P-ATP] (specific activity of about 500 cpm/pmol, concentration as required). The reaction was initiated by the addition of the magnesium acetate and [γ-^33P-ATP] mixture. After incubation for 40 minutes at room temperature, the reaction was stopped by the addition of 5 μL of a 3% phosphoric acid solution. A 10 μL aliquote of the reaction was then spotted onto a P30 filtermat (PerkinElmer, Wellesley, Mass.) and washed three times for five minutes in 75 mM phosphoric acid and once in methanol prior to drying and scintillation counting. Inhibition of Src activity was determined by comparison to assays that contained no inhibitor.

[2] = target: T4, N-terminal GST-tagged recombinant human Flt3, residues 564-end (Homo sapiens, UniProt P36888); test: Flt3 kinase inhibition assay (33P-ATP filter assay); details: 40 minutes, room temperature; less than or equal to 100 nM
T4 construct: recombinant human Flt3, residues 564-end; GST (N); purchased Upstate USA Inc, Charlottesville, Va
T4 sequence (P36888 564-993 limits assumed): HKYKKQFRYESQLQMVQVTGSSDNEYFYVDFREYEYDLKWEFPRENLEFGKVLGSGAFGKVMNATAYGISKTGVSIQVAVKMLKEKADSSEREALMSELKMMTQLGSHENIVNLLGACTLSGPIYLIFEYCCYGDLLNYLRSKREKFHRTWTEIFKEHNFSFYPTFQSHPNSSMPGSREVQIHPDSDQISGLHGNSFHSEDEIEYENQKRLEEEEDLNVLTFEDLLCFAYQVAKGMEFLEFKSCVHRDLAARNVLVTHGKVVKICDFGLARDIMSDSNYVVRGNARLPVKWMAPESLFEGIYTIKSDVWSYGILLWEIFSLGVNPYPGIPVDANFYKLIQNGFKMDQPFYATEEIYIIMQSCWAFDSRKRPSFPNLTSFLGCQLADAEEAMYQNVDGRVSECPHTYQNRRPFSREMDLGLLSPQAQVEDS
Protocol: (§1) Compounds were assayed for Flt3 kinase inhibitory activity using N-terminal GST-tagged recombinant human Flt3, residues 564-end (Upstate USA Inc, 706 Forest Street, Charlottesville, Va.). Serial dilutions of compound were assayed in a final reaction volume of 25 μL by incubating a solution of the above Flt3 kinase (5-10 mU), 8 mM MOPS (3-(N-morpholino)propanesulfonic acid) pH 7.0, 0.2 mM EDTA (ethylenediamine tetracetic acid), 50 μM amino acid sequence EAIYAAPFAKKK (Upstate USA Inc, 706 Forest Street, Charlottesville, Va.), and 10 mM magnesium acetate and [γ-^33P-ATP] (specific activity of about 500 cpm/pmol, concentration as required). The reaction was initiated by the addition of the magnesium acetate and [γ-^33P-ATP] mixture. After incubation for 40 minutes at room temperature, the reaction was stopped by the addition of 5 μL of a 3% phosphoric acid solution. A 10 μL aliquote of the reaction was then spotted onto a P30 filtermat (PerkinElmer, Wellesley, Mass.) and washed three times for five minutes in 75 mM phosphoric acid and once in methanol prior to drying and scintillation counting. Inhibition of Flt3 activity was determined by comparison to assays that contained no inhibitor.

[3] = target: T5, N-terminal His6-tagged recombinant human KDR, residues 790-end (Homo sapiens, UniProt P35968); test: KDR kinase inhibition assay (33P-ATP filter assay); details: 40 minutes, room temperature; less than or equal to 100 nM
T5 construct: recombinant human KDR, residues 790-end; His6 (N); purchased Upstate USA Inc, Charlottesville, Va
Protocol: as §1, with “KDR” for “Flt3”, “His6-tagged” for “GST-tagged”, “KDR,” for “Flt3,”, “790-end” for “564-end”, “0.33 mg/mL myelin basic protein” for “50 μM amino acid sequence EAIYAAPFAKKK”

T5 sequence (P35968 790-1356 limits assumed): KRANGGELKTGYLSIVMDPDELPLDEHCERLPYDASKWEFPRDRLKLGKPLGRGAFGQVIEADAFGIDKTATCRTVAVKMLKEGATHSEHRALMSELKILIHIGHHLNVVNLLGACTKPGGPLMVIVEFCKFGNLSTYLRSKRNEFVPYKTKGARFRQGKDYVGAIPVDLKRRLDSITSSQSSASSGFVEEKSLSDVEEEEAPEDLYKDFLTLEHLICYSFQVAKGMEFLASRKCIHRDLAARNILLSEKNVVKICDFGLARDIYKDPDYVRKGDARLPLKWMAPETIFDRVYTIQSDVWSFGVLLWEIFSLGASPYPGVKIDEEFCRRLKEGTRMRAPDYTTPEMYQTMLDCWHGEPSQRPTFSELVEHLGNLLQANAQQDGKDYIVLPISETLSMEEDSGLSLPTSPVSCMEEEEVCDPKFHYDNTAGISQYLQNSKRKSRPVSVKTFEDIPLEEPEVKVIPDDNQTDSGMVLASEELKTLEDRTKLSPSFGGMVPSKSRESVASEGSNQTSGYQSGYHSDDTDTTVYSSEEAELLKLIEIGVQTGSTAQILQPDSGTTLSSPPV
T3 sequence (P12931 whole entry): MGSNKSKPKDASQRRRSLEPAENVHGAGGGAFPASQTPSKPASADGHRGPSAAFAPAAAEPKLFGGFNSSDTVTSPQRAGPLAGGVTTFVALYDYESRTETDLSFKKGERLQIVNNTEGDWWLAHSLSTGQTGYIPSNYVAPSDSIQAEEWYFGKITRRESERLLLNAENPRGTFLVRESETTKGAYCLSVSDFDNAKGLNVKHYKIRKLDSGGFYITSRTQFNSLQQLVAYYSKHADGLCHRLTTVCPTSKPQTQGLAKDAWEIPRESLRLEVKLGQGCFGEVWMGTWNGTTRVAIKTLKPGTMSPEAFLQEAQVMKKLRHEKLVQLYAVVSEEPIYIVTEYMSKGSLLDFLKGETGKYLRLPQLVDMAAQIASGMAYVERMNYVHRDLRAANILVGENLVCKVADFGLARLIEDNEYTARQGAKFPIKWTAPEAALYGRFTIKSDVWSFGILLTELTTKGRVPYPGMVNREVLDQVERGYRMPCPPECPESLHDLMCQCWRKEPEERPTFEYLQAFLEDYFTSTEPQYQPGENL
T2 sequence (Q96GD4 whole entry): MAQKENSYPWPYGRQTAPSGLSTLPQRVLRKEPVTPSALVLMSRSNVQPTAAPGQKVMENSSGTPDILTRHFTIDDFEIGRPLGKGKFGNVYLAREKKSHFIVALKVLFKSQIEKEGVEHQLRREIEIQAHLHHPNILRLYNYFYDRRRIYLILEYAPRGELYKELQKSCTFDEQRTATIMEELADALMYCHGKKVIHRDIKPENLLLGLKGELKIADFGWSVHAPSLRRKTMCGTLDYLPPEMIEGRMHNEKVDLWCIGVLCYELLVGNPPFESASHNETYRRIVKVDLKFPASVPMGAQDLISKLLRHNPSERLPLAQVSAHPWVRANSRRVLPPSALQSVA

IC50 (recombinant Aurora A) [µM]	IC50 (Aurora B kinase) [µM]	IC50 [1] [µM]	IC50 [2] [µM]	IC50 [3] [µM]	SMILES
≤ 0.1	≤ 0.1	≤ 0.1	≤ 0.1	≤ 0.1	Cc1cc(Nc2cc(N3CC(O)(C4CC4)C3)nc(/C=C/c3ccccc3)n2)n[nH]1 [Compound 3, (E)-3-cyclopropyl-1-(6-(5-methyl-1H-pyrazol-3-ylamino)-2-styrylpyrimidin-4-yl)azetidin-3-ol]
≤ 0.1	≤ 0.1	≤ 0.1	≤ 0.1	≤ 0.1	Cc1cc(Nc2cc(N3CCC(N4CCOCC4)CC3)nc(/C=C/c3ccccc3)n2)n[nH]1 [Compound 7, (E)-N-(5-methyl-1H-pyrazol-3-yl)-6-(4-morpholinopiperidin-1-yl)-2-styrylpyrimidin-4-amine]
≤ 0.1	–	≤ 0.1	≤ 0.1	≤ 0.1	Cc1cc(Nc2cc(N3CCN(CC4CCCO4)CC3)nc(/C=C/c3ccccc3)n2)n[nH]1 (stereo not drawn) [Compound 24, (E)-N-(5-methyl-1H-pyrazol-3-yl)-2-styryl-6-(4-((tetrahydrofuran-2-yl)methyl)piperazin-1-yl)pyrimidin-4-amine]
≤ 0.1	–	≤ 0.1	≤ 0.1	≤ 0.1	Cc1cc(Nc2cc(N3CCC(CN4CCCCC4)CC3)nc(/C=C/c3ccccc3)n2)n[nH]1 [Compound 30]
